Test results: patent US9585905B2, “Sweet taste receptor antagonist compositions” (Four LLC, priority 2014, dated 2017)
“Also recorded” adds a separate entry of the source. Read-outs that look alike come from different tables or passages of the source.

B1: Miraculin (protein, UniProt P13087 30-220, looked up)
Miraculin: DSAPNPVLDIDGEKLRTGTNYYIVPVLRDHGGGLTVSATTPNGTFVCPPRVVQTRKEVDHDRPLAFFPENPKEDVVRVSTDLNINFSAFMPCRWTSSTVWRLDKYDESTGQYFVTIGGVKGNPGPETISSWFKIEEFCGSGFYKLVFCPTVCGSCKVKCGDVGIYIDQKGRRRLALSDKPFAFEFNKTVYF

Columns and labels:
[1] = tested on: sweet taste (10% sucrose reference); assay: Duration of sweet taste blockade: sensory panelist rates sweetness intensity (SI) of 10% sucrose after 5 min oral exposure to sample; type: in vivo, human; settings: for SI: 0-10 scale, 10% sucrose=10; for sweet taste inhibition following exposure of the oral cavity (in words): in vivo
Procedure: A standard method was developed to quantify the duration of sweet taste blockade for the gymnemic acid compositions of the present invention. […] In all cases, sucrose was used as the sweetener in sweet taste blockade quantification. Thus, 10%, 8%, 6%, 4%, and 2% (w/v) sucrose solutions in reverse osmosis (RO) purified water were freshly prepared and, at the beginning of each experiment, 15 mL samples of each sucrose solution were used to calibrate sensory panelist on sweetness intensity. The sensory panelist is described as a person with training in sensory evaluation with at least 1 year of experience as a sensory panelist in the area of gustatation, and preferably with training in descriptive analysis. Standard scaling methodology was used for quantification of sweetness intensity (SI) on the following scale: • 10% sucrose=10, • 8% sucrose=8, • 6% sucrose=6, • 4% sucrose=4, • 2% sucrose=2, and • 0% sucrose=0.
Following panelist calibration with the sucrose reference standards, the panelist rinsed their mouth with 15 mL RO water and the sweetness inhibitor sample in 15 mL RO water was then immediately taken into the mouth and gently agitated for 5 minutes. The sweet taste inhibitor sample was then expectorated and a 15 mL sample of the 10% sucrose reference solution was then immediately re-tasted, perceived SI within 15 seconds was rated on the 0-10 scale, the sample expectorated, and the mouth rinsed vigorously with 15 mL RO water. The 10% sucrose sample was then re-tasted every 15 min and SI rated. The panelist was asked to make comments on the observations of non-sweet taste attributes at each sucrose reference tasting interval.

[2] = tested on: bitter taste of bitter compounds (quinine, denatonium benzoate, tetralone, sucrose octaacetate, pseudoephedrine, dextromethorphan); settings: cited from earlier work
[3] = 10% sucrose re-tasted at 15 min
[4] = 10% sucrose re-tasted at 30 min
[5] = 10% sucrose re-tasted at 45 min
[6] = 10% sucrose re-tasted at 60 min
[7] = 10% sucrose re-tasted at 75 min
[8] = 10% sucrose re-tasted at 90 min
[9] = 10% sucrose re-tasted at 105 min
[10] = 10% sucrose re-tasted at 120 min
[11] = 10% sucrose tasted at 0 min after expectoration of sample (in 15 mL RO water, held 5 min)

| Molecule | SI [1, 3] | SI [1, 4] | SI [1, 5] | SI [1, 6] | SI [1, 7] | SI [1, 8] | SI [1, 9] | SI [1, 10] | SI [1, 11] | sweet taste inhibition following exposure of the oral cavity (in words) [1] | bitterness inhibitory activity ([2]; against denatonium benzoate) | bitterness inhibitory activity ([2]; against dextromethorphan) | bitterness inhibitory activity ([2]; against pseudoephedrine) | bitterness inhibitory activity ([2]; against quinine) | bitterness inhibitory activity ([2]; against sucrose octaacetate) | bitterness inhibitory activity ([2]; against tetralone) | inhibition of the bitterness of quinine hydrochloride (QHCl) ([2]; up to) |
| --- | --- | --- | --- | --- | --- | --- | --- | --- | --- | --- | --- | --- | --- | --- | --- | --- | --- |
| COc1ccc(OC(C)C(=O)O)cc1 (stereo not drawn) [Lactisole] | 10 | 10 | 10 | 10 | 10 | 10 | 10 | 10 | 12 | no sweet taste inhibition was observed; also recorded: caused no sweetness inhibition following expectoration | – | – | – | – | – | – | – |
| O=S(=O)([O-])[O-].[Zn+2] [zinc sulfate] | – | – | – | – | – | – | – | – | – | – | effective bitterness inhibitor | no significant bitterness inhibitory activity | no significant bitterness inhibitory activity | effective bitterness inhibitor | no significant bitterness inhibitory activity | effective bitterness inhibitor | up to 70% |
| B1 | 10 | 10 | 10 | 10 | 10 | 10 | 10 | 10 | 10 | No sweet taste inhibitory effect was observed | – | – | – | – | – | – | – |
